The values below come from ChEMBL document CHEMBL1201862, “PubChem BioAssay data set” (2004).

One test has as its target T1, Cysteine protease ATG4B (Homo sapiens, UniProt Q9Y4P1).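 Note: Fluorescence-based dose-response confirmation assay measuring inhibition of ATG4B activity.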
T1 sequence (Q9Y4P1 whole entry): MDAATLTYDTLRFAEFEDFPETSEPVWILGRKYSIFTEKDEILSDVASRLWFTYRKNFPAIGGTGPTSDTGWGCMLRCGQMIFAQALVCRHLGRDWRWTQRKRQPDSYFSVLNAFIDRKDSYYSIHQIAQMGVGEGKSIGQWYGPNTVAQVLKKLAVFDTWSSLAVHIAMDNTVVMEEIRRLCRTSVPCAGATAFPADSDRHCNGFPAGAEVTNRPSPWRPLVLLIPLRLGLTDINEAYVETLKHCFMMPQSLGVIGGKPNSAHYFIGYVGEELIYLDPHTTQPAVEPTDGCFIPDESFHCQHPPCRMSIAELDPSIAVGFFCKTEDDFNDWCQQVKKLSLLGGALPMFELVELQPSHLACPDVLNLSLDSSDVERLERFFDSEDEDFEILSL
The format is functional.

The next test addresses Phospholipase A2 (Homo sapiens, UniProt P04054). The format is functional.
The nature of test [1]: Luminescence Cell-Based Dose Retest to Confirm Inhibitors of Cancer Stem Cells. [Related pubchem assays (depositor defined):AID2717, AID2721]. The class given is functional, Homo sapiens. The note with it: Homo sapiens.
The nature of test [2]: viability loss of HMLE_sh_eGFP cells – cell-based, luminescence, counter-screen for HMLE_sh_ECad selective toxicity project, dose response (AID 463074).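 Note: HMLE human mammary epithelial cells expressing control shRNA against eGFP.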 The format is functional, Homo sapiens.
Test [3] can be described thus: cells. The class given is functional, cell-based.
Test [4] is described as follows: cells. The class given is functional, cell-based. This is another data set of the same source.
For test [5], the target named is T2, Mannose-6-phosphate isomerase (Homo sapiens, UniProt P34949).
T2 sequence (P34949 whole entry): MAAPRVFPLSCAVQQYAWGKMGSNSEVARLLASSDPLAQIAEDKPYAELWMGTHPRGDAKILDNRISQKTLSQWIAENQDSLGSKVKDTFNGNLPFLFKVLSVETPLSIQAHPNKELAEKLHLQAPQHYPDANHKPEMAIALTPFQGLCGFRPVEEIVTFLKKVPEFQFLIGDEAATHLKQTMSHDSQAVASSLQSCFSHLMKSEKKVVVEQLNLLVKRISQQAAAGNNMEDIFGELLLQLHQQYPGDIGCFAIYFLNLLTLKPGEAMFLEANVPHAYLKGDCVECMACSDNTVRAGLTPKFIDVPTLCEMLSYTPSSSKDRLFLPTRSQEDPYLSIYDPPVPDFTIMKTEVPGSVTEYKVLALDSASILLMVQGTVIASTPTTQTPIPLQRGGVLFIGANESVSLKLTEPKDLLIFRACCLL
The experiment in a line: phosphomannose isomerase inhibition – biochemical, fluorescence intensity, confirmation (AID 1535).

For the next test, the target named is T3, Phosphomannomutase 2 (Homo sapiens, UniProt O15305).
T3 sequence (O15305 whole entry): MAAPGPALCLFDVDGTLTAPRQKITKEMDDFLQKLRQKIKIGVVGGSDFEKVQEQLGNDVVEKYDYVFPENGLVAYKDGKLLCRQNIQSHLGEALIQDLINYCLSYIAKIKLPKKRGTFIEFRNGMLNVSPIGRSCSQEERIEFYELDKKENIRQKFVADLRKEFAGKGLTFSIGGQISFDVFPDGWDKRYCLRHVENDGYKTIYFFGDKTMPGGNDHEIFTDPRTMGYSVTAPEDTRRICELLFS
As to the kind of experiment: Counter screen SAR assay for PMM2 inhibitors via a fluorescence intensity assay. [Related pubchem assays (depositor defined):AID1545, AID1574]. Background: Counterscreens check selectivity or assay interference.

For test [6], the target named is T4, Phosphoethanolamine/phosphocholine phosphatase (Homo sapiens, UniProt Q8TCT1).
T4 sequence (Q8TCT1 whole entry): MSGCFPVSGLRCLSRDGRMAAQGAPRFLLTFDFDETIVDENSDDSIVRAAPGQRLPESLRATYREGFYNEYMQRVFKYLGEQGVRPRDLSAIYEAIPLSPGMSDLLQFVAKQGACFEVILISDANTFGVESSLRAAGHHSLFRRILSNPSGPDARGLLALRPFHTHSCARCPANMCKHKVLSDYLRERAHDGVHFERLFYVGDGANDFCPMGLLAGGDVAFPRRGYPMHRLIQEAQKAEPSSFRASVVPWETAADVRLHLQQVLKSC
The experiment in a line: SAR assay for compounds that inhibit PHOSPHO1. [Related pubchem assays (depositor defined):AID1545, AID1565, AID1574].

The target in test [7] is T5, Alkaline phosphatase, tissue-nonspecific isozyme (Homo sapiens, UniProt P05186).
T5 sequence (P05186 whole entry): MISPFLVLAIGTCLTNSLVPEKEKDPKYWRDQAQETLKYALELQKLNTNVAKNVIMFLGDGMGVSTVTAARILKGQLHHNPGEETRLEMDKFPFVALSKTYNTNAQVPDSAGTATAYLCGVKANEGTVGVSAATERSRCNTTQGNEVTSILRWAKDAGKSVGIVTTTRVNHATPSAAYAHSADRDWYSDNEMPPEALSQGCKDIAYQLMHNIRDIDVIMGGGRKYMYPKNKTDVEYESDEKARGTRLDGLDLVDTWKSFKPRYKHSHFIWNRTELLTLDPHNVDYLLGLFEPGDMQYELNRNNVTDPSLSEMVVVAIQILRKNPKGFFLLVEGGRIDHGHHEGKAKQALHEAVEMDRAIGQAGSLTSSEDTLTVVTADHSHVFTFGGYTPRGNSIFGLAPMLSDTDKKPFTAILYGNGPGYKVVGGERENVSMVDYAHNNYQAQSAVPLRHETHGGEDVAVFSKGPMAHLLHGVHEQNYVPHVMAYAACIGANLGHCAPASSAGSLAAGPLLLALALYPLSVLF
The experiment in a line: potency against alkaline phosphatase TNAP – biochemical, luminescent, dose response, SAR follow-up (AID 1056).

Test [8] addresses T6, Sentrin-specific protease 8 (Homo sapiens, UniProt Q96LD8).
T6 sequence (Q96LD8 whole entry): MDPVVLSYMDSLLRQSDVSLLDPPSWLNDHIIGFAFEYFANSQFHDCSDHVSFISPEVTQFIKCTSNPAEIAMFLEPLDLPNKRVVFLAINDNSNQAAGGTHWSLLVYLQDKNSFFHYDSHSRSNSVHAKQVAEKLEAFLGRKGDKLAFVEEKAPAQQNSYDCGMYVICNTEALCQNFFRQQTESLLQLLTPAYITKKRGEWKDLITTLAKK
The experiment in a line: inhibition of human SENP8 cleavage activity – biochemical, luminescence, SAR follow-up (AID 504501). The format is functional.

For a further test, the target named is T7, Caspase-3 (Homo sapiens, UniProt P42574).
T7 sequence (P42574 whole entry): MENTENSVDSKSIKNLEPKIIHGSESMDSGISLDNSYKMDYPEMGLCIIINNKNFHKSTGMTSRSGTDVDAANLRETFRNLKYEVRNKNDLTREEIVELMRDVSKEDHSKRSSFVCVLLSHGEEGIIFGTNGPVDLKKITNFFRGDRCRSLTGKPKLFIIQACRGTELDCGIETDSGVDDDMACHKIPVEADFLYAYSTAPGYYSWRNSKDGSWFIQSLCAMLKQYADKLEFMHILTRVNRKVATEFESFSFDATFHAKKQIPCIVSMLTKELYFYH
The experiment in a line: SAR Analysis of small molecule inhibitors of Sentrin-specific proteases (SENPs) using a Caspase-3 Selectivity assay. [Related pubchem assays (depositor defined):AID2540, AID2599, AID434973, AID489001]. The class given is functional.

Test [9] addresses T8, Sentrin-specific protease 6 (Homo sapiens, UniProt Q9GZR1).
T8 sequence (Q9GZR1 whole entry): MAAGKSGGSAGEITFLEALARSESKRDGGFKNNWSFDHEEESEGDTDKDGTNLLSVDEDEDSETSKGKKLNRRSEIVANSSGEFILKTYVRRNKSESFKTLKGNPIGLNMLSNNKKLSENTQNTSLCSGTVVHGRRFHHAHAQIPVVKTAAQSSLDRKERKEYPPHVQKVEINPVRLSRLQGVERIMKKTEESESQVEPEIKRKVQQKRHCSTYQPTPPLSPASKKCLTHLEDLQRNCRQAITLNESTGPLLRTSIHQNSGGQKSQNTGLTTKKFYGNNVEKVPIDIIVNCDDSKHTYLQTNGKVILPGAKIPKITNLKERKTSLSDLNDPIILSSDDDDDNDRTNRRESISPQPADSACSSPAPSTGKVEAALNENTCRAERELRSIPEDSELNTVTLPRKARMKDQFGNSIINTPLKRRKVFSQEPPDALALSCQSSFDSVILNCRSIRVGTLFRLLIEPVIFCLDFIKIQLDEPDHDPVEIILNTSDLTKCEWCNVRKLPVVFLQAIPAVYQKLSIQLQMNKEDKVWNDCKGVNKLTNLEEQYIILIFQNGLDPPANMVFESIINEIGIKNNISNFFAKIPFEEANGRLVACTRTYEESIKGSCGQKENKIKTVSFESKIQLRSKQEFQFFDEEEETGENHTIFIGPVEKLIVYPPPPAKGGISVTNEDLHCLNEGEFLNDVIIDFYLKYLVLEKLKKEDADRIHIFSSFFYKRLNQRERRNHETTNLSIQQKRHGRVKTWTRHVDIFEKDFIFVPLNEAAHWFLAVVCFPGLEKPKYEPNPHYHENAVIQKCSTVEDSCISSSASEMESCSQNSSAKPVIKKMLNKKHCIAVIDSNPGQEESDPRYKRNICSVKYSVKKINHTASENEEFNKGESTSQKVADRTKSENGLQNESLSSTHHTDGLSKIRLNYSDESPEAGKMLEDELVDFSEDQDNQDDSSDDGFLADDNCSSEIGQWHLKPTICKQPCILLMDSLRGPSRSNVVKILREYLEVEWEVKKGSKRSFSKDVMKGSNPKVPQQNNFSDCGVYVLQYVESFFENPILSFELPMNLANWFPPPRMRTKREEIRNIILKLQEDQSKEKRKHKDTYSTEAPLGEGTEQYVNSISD
As to the kind of experiment: SAR Analysis of small molecule inhibitors of Sentrin-specific protease 6 (SENP6) using a Luminescent assay. [Related pubchem assays (depositor defined):AID2582, AID2599]. The format is functional.

Test [10] addresses T9, Sentrin-specific protease 7 (Homo sapiens, UniProt Q9BQF6).
T9 sequence (Q9BQF6 whole entry): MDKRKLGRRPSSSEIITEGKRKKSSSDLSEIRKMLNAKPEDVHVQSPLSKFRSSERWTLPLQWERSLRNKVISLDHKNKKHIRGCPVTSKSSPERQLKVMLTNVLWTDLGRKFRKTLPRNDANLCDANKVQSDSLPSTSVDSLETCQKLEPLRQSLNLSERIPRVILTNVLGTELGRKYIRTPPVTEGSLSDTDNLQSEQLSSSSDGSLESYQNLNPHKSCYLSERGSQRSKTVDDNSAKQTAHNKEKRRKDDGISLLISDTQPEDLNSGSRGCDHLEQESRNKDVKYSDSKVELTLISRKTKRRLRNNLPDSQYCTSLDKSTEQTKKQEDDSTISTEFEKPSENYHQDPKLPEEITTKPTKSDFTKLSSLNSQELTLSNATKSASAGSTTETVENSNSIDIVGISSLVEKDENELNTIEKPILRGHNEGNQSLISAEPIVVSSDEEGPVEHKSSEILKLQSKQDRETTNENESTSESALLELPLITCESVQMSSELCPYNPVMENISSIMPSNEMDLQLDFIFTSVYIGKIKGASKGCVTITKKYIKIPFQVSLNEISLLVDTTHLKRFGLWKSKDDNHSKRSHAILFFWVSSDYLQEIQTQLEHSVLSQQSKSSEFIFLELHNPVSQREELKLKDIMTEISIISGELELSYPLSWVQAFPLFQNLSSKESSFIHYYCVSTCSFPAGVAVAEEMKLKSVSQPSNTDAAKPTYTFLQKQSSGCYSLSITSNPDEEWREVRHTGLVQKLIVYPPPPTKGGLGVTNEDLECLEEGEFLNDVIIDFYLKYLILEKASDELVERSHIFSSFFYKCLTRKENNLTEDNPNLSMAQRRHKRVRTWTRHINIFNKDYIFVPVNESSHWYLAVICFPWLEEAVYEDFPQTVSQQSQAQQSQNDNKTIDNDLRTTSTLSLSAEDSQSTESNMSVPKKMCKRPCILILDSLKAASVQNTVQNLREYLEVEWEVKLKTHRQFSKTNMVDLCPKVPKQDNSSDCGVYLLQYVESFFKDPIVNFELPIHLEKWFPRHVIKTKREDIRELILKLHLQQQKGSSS
As to the kind of experiment: inhibition of human SENP7 cleavage activity – biochemical, luminescence, SAR follow-up (AID 504497). The format is functional.

The source made the active and inactive calls.
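Throughout, for EC50: agonist potency from rise in intracellular calcium fluorescence.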

Phospholipase A2, sequence (P04054 whole entry): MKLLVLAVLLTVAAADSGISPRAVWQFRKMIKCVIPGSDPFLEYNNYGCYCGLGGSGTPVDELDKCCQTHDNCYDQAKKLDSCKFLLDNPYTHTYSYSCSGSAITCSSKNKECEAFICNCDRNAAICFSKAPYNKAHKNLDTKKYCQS

The IC50 is the concentration at which inhibition is half-maximal. For the compound `Cc1cc(C)nc(SCc2ccc(C(=O)N/N=C3\CC(C)CC(C)(C)C3)cc2)n1` (centres undefined), the results for the IC50 at Cysteine protease ATG4B and on Phospholipase A2 were 22.7 µM (inactive) and 17.9 µM (active), respectively.
A word on the AC50: it is the midpoint of the concentration-response curve, whichever way the signal moves. Usually EC50 stands for the midpoint of the concentration-response curve. As for `OC(COc1ccc(CNCCc2ccccc2F)cc1)CN1CCCCC1` (centres undefined), the AC50 is > 195 µM (inactive) in test [1] and 33.9 µM (active) in test [2]. Moreover, in “cells [3]”, the IC50 is > 29.9 µM (inactive). In addition, in “cells [4]”, the EC50 is > 29.9 µM (inactive).
Regarding `Cc1onc(-c2ccccc2)c1C(=O)Nc1sc2c(c1C#N)CCC(C)C2` (centres undefined), the AC50 in [1] was 1.12 µM (active); in test [2], 26.3 µM (active).
For `COc1ccc(-c2cc([C@H]3[C@H]4C=CC[C@@H](C)[C@@H]4C(=O)N3Cc3ccccc3)ccc2F)cc1`, in that order: 2.76 µM (active) and 22 µM (active).
As to `Fc1ccc(CCN=C(S)Nc2ccc(F)c(Cl)c2)cc1`, the IC50 is 12.4 µM (active) at Cysteine protease ATG4B and 8.38 µM (active) on Phospholipase A2.
On to `CCOC(=O)c1ccc(-n2sc3ccccc3c2=O)cc1`, for which the IC50 is 23.6 µM (active) in test [5], > 100 µM (inactive) at Phosphomannomutase 2, 1.24 µM (inactive) in test [6] and > 100 µM (inactive) in test [7].
For the compound `CC(C)(CC(=O)Nc1scc(-c2ccc(Br)cc2)c1C(=O)O)CC(=O)Nc1scc(-c2ccc(Br)cc2)c1C(=O)O`, the IC50 (in [8]; at Caspase-3; in [9]; in test [10]) was > 99 µM (inactive) throughout.
In the case of `Fc1ccc(/C=C/c2noc(-c3ccc(C(F)(F)F)cc3F)n2)cc1`, the IC50 (in test [8]; at Caspase-3; in test [9]; in [10]) was > 99 µM (inactive) each time.
